Results reported in patent publication EP0620225B1, “Cephalosporin derivatives” (Basilea Pharmaceutica AG, priority 1993, dated 1994).
In brackets after ≈: the same amount, converted by molar mass. Structures can show the parent of a compound that is named as a salt. Values belong to the compound of their own block, whether it stands above or below them.

Assays:
Escherichia coli 25922 = test: Efficacy against systemic infections (septicemia) in mice; type: in vivo; conditions: 96 h, survival day 4
Procedure, shortened: (§1)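 Swiss albino mice (16–20 g) infected i.p. with 4–10× the 48-h LD50 of each strain; compound given p.o. or s.c. at 1 and 3 h post-challenge, plus 5 h for P. aeruginosa BA. Five mice per group; ED50 (mg/kg) by probit analysis of day-4 survival.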

[1] = system: Streptococcus pyogenes 15; test: as above; type: in vivo; conditions: 96 h, Streptococcus pyogenes 15, po (orally) 1 and 3 h after challenge, survival day 4
Procedure, shortened: as §1

Str. pneumoniae 6301 = test: MIC, agar dilution method in Mueller Hinton agar; type: cell-based; conditions: Streptococcus pneumoniae, 6301, read-out: Minimum Inhibiting Concentration Values
Protocol: (§2) In vitro activity was determined by minimum inhibitory concentration in a microorganism spectum by the agar dilution method in Mueller Hinton agar.

Staph. aureus ATCC 29213 = test: MIC, agar dilution method in Mueller Hinton agar; type: cell-based; conditions: Staphylococcus aureus, ATCC29213, read-out: Minimum Inhibiting Concentration Values
Protocol: as §2

Str. pyogenes 4 = test: MIC, agar dilution method in Mueller Hinton agar; type: cell-based; conditions: Streptococcus pyogenes, read-out: Minimum Inhibiting Concentration Values
Protocol: as §2

E. coli TEM-1 = test: MIC, agar dilution method in Mueller Hinton agar; type: cell-based; conditions: Escherichia coli, TEM1, read-out: Minimum Inhibiting Concentration Values
Protocol: as §2

[2] = system: Ps. aeruginosa ATCC 27853; test: MIC, agar dilution method in Mueller Hinton agar; type: cell-based; conditions: Pseudomonas aeruginosa, ATCC27853, read-out: Minimum Inhibiting Concentration Values
Protocol: as §2

Ps. aeruginosa 5712 = test: MIC, agar dilution method in Mueller Hinton agar; type: cell-based; conditions: Pseudomonas aeruginosa, read-out: Minimum Inhibiting Concentration Values
Protocol: as §2

Staph. aureus Smith = test: MIC, agar dilution method in Mueller Hinton agar; type: cell-based; conditions: Staphylococcus aureus, read-out: Minimum Inhibiting Concentration Values
Protocol: as §2

Prot. vulgaris ATCC 6380 = test: MIC, agar dilution method in Mueller Hinton agar; type: cell-based; conditions: Proteus vulgaris, ATCC6380, read-out: Minimum Inhibiting Concentration Values
Protocol: as §2

E. coli ATCC 25922 = test: MIC, agar dilution method in Mueller Hinton agar; type: cell-based; conditions: Escherichia coli, ATCC25922, read-out: Minimum Inhibiting Concentration Values
Protocol: as §2

[3] = system: Pseudomonas aeruginosa BA; test: Efficacy against systemic infections (septicemia) in mice; type: in vivo; conditions: 96 h, sc (subcutaneous) 1, 3 and 5 h after challenge, survival day 4
Procedure, shortened: as §1

S.pneumoniae PEN-R = test: In vitro activity against selected species (MIC50, MIC90, range); type: cell-based; conditions: Streptococcus pneumoniae; for MIC: MIC range
S.aureus MRSA = test: as above; type: cell-based; conditions: Staphylococcus aureus, medium MHA (Mueller Hinton Agar) +NaCl
Protocol: as §2

E.faecalis [4] = test: as above; type: cell-based; conditions: Enterococcus faecalis, medium MHA
Protocol: as §2

E.coli 25922 = test: Antibacterial spectrum (MIC), agar dilution; type: cell-based; conditions: Escherichia coli, read-out: MIC
Protocol: as §2

P.aeruginosa 27853 = test: Antibacterial spectrum (MIC), agar dilution; type: cell-based; conditions: Pseudomonas aeruginosa, read-out: MIC
Protocol: as §2

Acinetobacter sp.51-156 = test: Antibacterial spectrum (MIC), agar dilution; type: cell-based; conditions: SP.51156, read-out: MIC
Protocol: as §2

B.fragilis ATCC25285 = test: Antibacterial spectrum (MIC), agar dilution; type: cell-based; conditions: Bacteroides fragilis, read-out: MIC
Protocol: as §2

P.mirabilis 2117 = test: Antibacterial spectrum (MIC), agar dilution; type: cell-based; conditions: Proteus mirabilis, read-out: MIC
Protocol: as §2

M.catarrhalis RA21 = test: Antibacterial spectrum (MIC), agar dilution; type: cell-based; conditions: Moraxella catarrhalis, read-out: MIC
Protocol: as §2

N.meningitidis 69480 = test: Antibacterial spectrum (MIC), agar dilution; type: cell-based; conditions: Neisseria meningitidis, read-out: MIC
Protocol: as §2

S.aureus 6538 = test: Antibacterial spectrum (MIC), agar dilution; type: cell-based; conditions: Staphylococcus aureus, read-out: MIC
Protocol: as §2

E.cloacae 908R = test: Antibacterial spectrum (MIC), agar dilution; type: cell-based; conditions: Enterobacter cloacae, read-out: MIC
Protocol: as §2

C.freundii 43 = test: Antibacterial spectrum (MIC), agar dilution; type: cell-based; conditions: Citrobacter freundii, read-out: MIC
Protocol: as §2

X.maltophilia 1AC739 = test: Antibacterial spectrum (MIC), agar dilution; type: cell-based; conditions: Stenotrophomonas maltophilia, read-out: MIC
Protocol: as §2

L.monocytogenes BK23 = test: Antibacterial spectrum (MIC), agar dilution; type: cell-based; conditions: Listeria monocytogenes, read-out: MIC
Protocol: as §2

S.aureus 734 MRSA = test: Antibacterial spectrum (MIC), agar dilution; type: cell-based; conditions: Staphylococcus aureus, read-out: MIC
Protocol: as §2

P.asaccharolyticus 29743 = test: Antibacterial spectrum (MIC), agar dilution; type: cell-based; conditions: Peptoniphilus asaccharolyticus, read-out: MIC
Protocol: as §2

S.marcescens 69438 = test: Antibacterial spectrum (MIC), agar dilution; type: cell-based; conditions: Serratia marcescens, read-out: MIC
Protocol: as §2

C.difficile ZH1 = test: Antibacterial spectrum (MIC), agar dilution; type: cell-based; conditions: Clostridioides difficile, read-out: MIC
Protocol: as §2

M.morganii 6H-137 = test: Antibacterial spectrum (MIC), agar dilution; type: cell-based; conditions: Morganella morganii, 6H137, read-out: MIC
Protocol: as §2

E.faecalis 6 = test: Antibacterial spectrum (MIC), agar dilution; type: cell-based; conditions: Enterococcus faecalis, read-out: MIC
Protocol: as §2

S.viridans group 016 = test: Antibacterial spectrum (MIC), agar dilution; type: cell-based; conditions: Streptococcus viridans, read-out: MIC
Protocol: as §2

E.cloacae 908SSi = test: Antibacterial spectrum (MIC), agar dilution; type: cell-based; conditions: Enterobacter cloacae, read-out: MIC
Protocol: as §2

S.pyogenes B15 = test: Antibacterial spectrum (MIC), agar dilution; type: cell-based; conditions: Streptococcus pyogenes, read-out: MIC
Protocol: as §2

H.influenzae 1 = test: Antibacterial spectrum (MIC), agar dilution; type: cell-based; conditions: Haemophilus influenzae, read-out: MIC
Protocol: as §2

K.pneumoniae 418 = test: Antibacterial spectrum (MIC), agar dilution; type: cell-based; conditions: Klebsiella pneumoniae, read-out: MIC
Protocol: as §2

C.freundii 902 = test: Antibacterial spectrum (MIC), agar dilution; type: cell-based; conditions: Citrobacter freundii, read-out: MIC
Protocol: as §2

S.pneumoniae Q19 = test: Antibacterial spectrum (MIC), agar dilution; type: cell-based; conditions: Streptococcus pneumoniae, read-out: MIC
Protocol: as §2

S.agalactiae QK44 = test: Antibacterial spectrum (MIC), agar dilution; type: cell-based; conditions: Streptococcus agalactiae, read-out: MIC
Protocol: as §2

P.vulgaris 1028 = test: Antibacterial spectrum (MIC), agar dilution; type: cell-based; conditions: Proteus vulgaris, read-out: MIC
Protocol: as §2

S.aureus Smith = test: Efficacy against systemic infections (septicemia) in mice; type: in vivo; conditions: Staphylococcus aureus, 96 h, sc 1 and 3 h after challenge, survival day 4
Procedure, shortened: as §1

S.aureus MSSA = test: In vitro activity against selected species (MIC50, MIC90, range); type: cell-based; conditions: Staphylococcus aureus, medium MHB (Mueller Hinton Broth)
M.catarrhalis = test: as above; type: cell-based; conditions: Moraxella catarrhalis, medium IsoB
S.viridans group = test: as above; type: cell-based; conditions: Streptococcus viridans
E.faecalis [5] = test: as above; type: cell-based; conditions: Enterococcus faecalis, medium IsoB
E.faecium = test: In vitro activity against selected species (MIC50, range); type: cell-based; conditions: Enterococcus faecium, medium MHA
Protocol: as §2

[6] = Escherichia coli 25922, po (orally) 1 and 3 h after challenge
[7] = medium IsoB (Isosensitest Broth)

SMILES: C=CC1=C(C(=O)O)N2C(=O)[C@@H](NC(=O)/C(=N\OCC(=O)O)c3csc(N)n3)[C@H]2SC1 [Cefixime, reference compound]
- ED50 (Escherichia coli 25922; [6]): 0.5 mg/kg
- ED50 [1]: 2 mg/kg

SMILES: Nc1nc(/C(=N/OCC(=O)O)C(=O)N[C@@H]2C(=O)N3C(C(=O)O)=C(/C=C4\CCN(CCF)C4=O)CS[C@H]23)cs1 [B, [6R-[3(E),6α,7β(Z)]]-7-[[(2-Amino-4-thiazolyl)[(carboxy-methoxy)imino]-acetyl]amino]-3-[[1-(2-fluoroethyl)-2-oxo-3-pyrrolidinylidene]methyl]-8-oxo-5-thia-1-azabicyclo[4.2.0]-oct-2-ene-2-carboxylic acid disodium salt]
- MIC (Str. pneumoniae 6301): 0.0313 µg/mL
- MIC (Staph. aureus ATCC 29213): 16 µg/mL
- MIC (Str. pyogenes 4): 0.125 µg/mL
- MIC (E. coli TEM-1): 0.0313 µg/mL
- MIC [2]: 4 µg/mL
- MIC (Ps. aeruginosa 5712): 4 µg/mL
- MIC (Staph. aureus Smith): 8 µg/mL
- MIC (Prot. vulgaris ATCC 6380): ≤ 0.0156 µg/mL
- MIC (E. coli ATCC 25922): 0.0313 µg/mL
- ED50 (Escherichia coli 25922; [6]): < 0.1 mg/kg
- ED50 [1]: 0.5 mg/kg
- ED50 [3]: 3.5 mg/kg

- MIC (S.pneumoniae PEN-R; [7]): 0.12 to 0.5 µg/mL (≈ 0.22 to 0.915 µM)
- MIC (S.pneumoniae PEN-R; medium IsoB + 20% serum): 0.25 to 0.5 µg/mL
- MIC50 (S.pneumoniae PEN-R; [7]): 0.25 µg/mL (≈ 0.457 µM)
- MIC90 (S.pneumoniae PEN-R; [7]): 0.5 µg/mL (≈ 0.915 µM)
- MIC50 (S.pneumoniae PEN-R; medium IsoB + 20% serum): 0.5 µg/mL
- MIC (S.aureus MRSA; MIC range): 8 to 16 µg/mL (≈ 14.6 to 29.3 µM)
- MIC50 (S.aureus MRSA): 8 µg/mL (≈ 14.6 µM)
- MIC90 (S.aureus MRSA): 8 µg/mL (≈ 14.6 µM)
- MIC (E.faecalis [4]; MIC range): 1 to 2 µg/mL (≈ 1.83 to 3.66 µM)
- MIC50 (E.faecalis [4]): 1 µg/mL (≈ 1.83 µM)
- MIC90 (E.faecalis [4]): 2 µg/mL (≈ 3.66 µM)
- MIC (E.coli 25922): 0.12 µg/mL (≈ 0.22 µM)
- MIC (P.aeruginosa 27853): 16 µg/mL (≈ 29.3 µM)
- MIC (Acinetobacter sp.51-156): 16 µg/mL (≈ 29.3 µM)
- MIC (B.fragilis ATCC25285): 8 µg/mL (≈ 14.6 µM)
- MIC (P.mirabilis 2117): ≤ 0.06 µg/mL
- MIC (M.catarrhalis RA21): 16 µg/mL (≈ 29.3 µM)
- MIC (N.meningitidis 69480): ≤ 0.06 µg/mL
- MIC (S.aureus 6538): 0.5 µg/mL (≈ 0.915 µM)
- MIC (E.cloacae 908R): 16 µg/mL (≈ 29.3 µM)
- MIC (C.freundii 43): 4 µg/mL (≈ 7.32 µM)
- MIC (X.maltophilia 1AC739): > 32 µg/mL
- MIC (L.monocytogenes BK23): 4 µg/mL (≈ 7.32 µM)
- MIC (S.aureus 734 MRSA): 8 µg/mL (≈ 14.6 µM)
- MIC (P.asaccharolyticus 29743): ≤ 0.12 µg/mL
- MIC (S.marcescens 69438): 1 µg/mL (≈ 1.83 µM)
- MIC (C.difficile ZH1): 8 µg/mL (≈ 14.6 µM)
- MIC (M.morganii 6H-137): ≤ 0.06 µg/mL
- MIC (E.faecalis 6): 1 µg/mL (≈ 1.83 µM)
- MIC (S.viridans group 016): 1 µg/mL (≈ 1.83 µM)
- MIC (E.cloacae 908SSi): 0.25 µg/mL (≈ 0.457 µM)
- MIC (S.pyogenes B15): ≤ 0.06 µg/mL
- MIC (H.influenzae 1): 0.25 µg/mL (≈ 0.457 µM)
- MIC (K.pneumoniae 418): 0.12 µg/mL (≈ 0.22 µM)
- MIC (C.freundii 902): 0.12 µg/mL (≈ 0.22 µM)
- MIC (S.pneumoniae Q19): ≤ 0.06 µg/mL
- MIC (S.agalactiae QK44): 0.25 µg/mL (≈ 0.457 µM)
- MIC (P.vulgaris 1028): 1 µg/mL (≈ 1.83 µM)
- MIC (S.aureus MSSA; MIC range): 0.5 to 1 µg/mL (≈ 0.915 to 1.83 µM)
- MIC50 (S.aureus MSSA): 1 µg/mL (≈ 1.83 µM)
- MIC90 (S.aureus MSSA): 1 µg/mL (≈ 1.83 µM)
- MIC (M.catarrhalis; MIC range): 1 to 16 µg/mL (≈ 1.83 to 29.3 µM)
- MIC50 (M.catarrhalis): 4 µg/mL (≈ 7.32 µM)
- MIC90 (M.catarrhalis): 16 µg/mL (≈ 29.3 µM)
- MIC50 (S.viridans group): 2 µg/mL (≈ 3.66 µM)
- MIC90 (S.viridans group): 2 µg/mL (≈ 3.66 µM)
- MIC (S.viridans group; MIC range): 0.12 to 4 µg/mL (≈ 0.22 to 7.32 µM)
- MIC (E.faecalis [5]; MIC range): 0.25 to 2 µg/mL (≈ 0.457 to 3.66 µM)
- MIC50 (E.faecalis [5]): 0.5 µg/mL (≈ 0.915 µM)
- MIC90 (E.faecalis [5]): 2 µg/mL (≈ 3.66 µM)
- MIC (E.faecium; MIC range): 1 to 16 µg/mL (≈ 1.83 to 29.3 µM)
- MIC50 (E.faecium): 4 µg/mL (≈ 7.32 µM)
SMILES: Nc1nc(/C(=N/O)C(=O)N[C@@H]2C(=O)N3C(C(=O)O)=C(/C=C4\CCN(CC(F)(F)F)C4=O)CS[C@H]23)cs1 [E, [6R-[3(E),6α,7β(Z)]]-7-[[(2-Amino-4-thiazolyl)(hydroxyimino)-acetyl]amino]-3-[[1-(2,2,2-trifluoroethyl)-2-oxo-3-pyrrolidinylidene]-methyl]-8-oxo-5-thia-1-azabicyclo[4.2.0]oct-2-ene-2-carboxylic acid]
- ED50 (Escherichia coli 25922; [6]): 3 mg/kg
- ED50 (Escherichia coli 25922; Escherichia coli, E.coli 25922, sc 1 and 3 h after challenge): 0.07 mg/kg
- ED50 (S.aureus Smith): < 1 mg/kg
